Values joined by “and” are separate entries in the source; they are usually repeats but may differ in a detail not shown here. Equal entries are not always repeated.
Tested on: 996289-038-R-J1-PDC complex spheroid viability
Assay: Anticancer human tumor 996289-038-R-J1-PDC patient-derived colon adenocarcinoma cell line growth inhibition [CLK]
Conditions: for viability, T/C: stronger effect = lower value
In short: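 Patient-derived tumor cells grown as complex spheroids with HUVEC endothelial cells and mesenchymal stem cells, treated with drug combinations. Concentrations descend in half-log steps from near clinical Cmax, or from 10 microM if Cmax unknown.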

[1] = curve of first compound, second compound 0.0316 µM
[2] = curve of first compound, second compound 0.1 µM
[3] = curve of first compound, second compound 0.316 µM
[4] = curve of first compound, second compound 1 µM
[5] = curve of first compound, second compound 3.16 µM
[6] = curve of first compound, second compound 10 µM
[7] = second compound 0.0316 µM, first compound 0.0316 µM
[8] = second compound 0.0316 µM, first compound 0.1 µM
[9] = second compound 0.0316 µM, first compound 0.316 µM
[10] = second compound 0.0316 µM, first compound 1 µM
[11] = second compound 0.0316 µM, first compound 3.16 µM
[12] = second compound 0.0316 µM, first compound 10 µM
[13] = second compound 0.1 µM, first compound 0.0316 µM
[14] = second compound 0.1 µM, first compound 0.1 µM
[15] = second compound 0.1 µM, first compound 0.316 µM
[16] = second compound 0.1 µM, first compound 1 µM
[17] = second compound 0.1 µM, first compound 3.16 µM
[18] = second compound 0.1 µM, first compound 10 µM
[19] = second compound 0.316 µM, first compound 0.0316 µM
[20] = second compound 0.316 µM, first compound 0.1 µM
[21] = second compound 0.316 µM, first compound 0.316 µM
[22] = second compound 0.316 µM, first compound 1 µM
[23] = second compound 0.316 µM, first compound 3.16 µM
[24] = second compound 0.316 µM, first compound 10 µM
[25] = second compound 1 µM, first compound 0.0316 µM
[26] = second compound 1 µM, first compound 0.1 µM
[27] = second compound 1 µM, first compound 0.316 µM
[28] = second compound 1 µM, first compound 1 µM
[29] = second compound 1 µM, first compound 3.16 µM
[30] = second compound 1 µM, first compound 10 µM
[31] = second compound 3.16 µM, first compound 0.0316 µM
[32] = second compound 3.16 µM, first compound 0.1 µM
[33] = second compound 3.16 µM, first compound 0.316 µM
[34] = second compound 3.16 µM, first compound 1 µM
[35] = second compound 3.16 µM, first compound 3.16 µM
[36] = second compound 3.16 µM, first compound 10 µM
[37] = second compound 10 µM, first compound 0.0316 µM
[38] = second compound 10 µM, first compound 0.1 µM
[39] = second compound 10 µM, first compound 0.316 µM
[40] = second compound 10 µM, first compound 1 µM
[41] = second compound 10 µM, first compound 3.16 µM
[42] = second compound 10 µM, first compound 10 µM
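Further: spheroids exposed to the agents for 7 days before readout.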

## CC1(C)CCC(CN2CCN(c3ccc(C(=O)NS(=O)(=O)c4ccc(NCC5CCOCC5)c([N+](=O)[O-])c4)c(Oc4cnc5[nH]ccc5c4)c3)CC2)=C(c2ccc(Cl)cc2)C1 + CN1CCN(c2cc(C(=O)Nc3cc4cc(-c5cnn(C)c5)ccc4cn3)ccn2)CC1
[1]
  IC50: 8460 nM
[2]
  IC50: 6780 nM
[3]
  IC50: 5350 nM
[4]
  IC50: < 31.6 nM
[5]
  IC50: < 31.6 nM
[6]
  IC50: < 31.6 nM
[7]
  viability, T/C: 107%
[8]
  viability, T/C: 92.1%
[9]
  viability, T/C: 99.5%
[10]
  viability, T/C: 104%
[11]
  viability, T/C: 111%
[12]
  viability, T/C: 41%
[13]
  viability, T/C: 93.1%
[14]
  viability, T/C: 92.7%
[15]
  viability, T/C: 91.3%
[16]
  viability, T/C: 102%
[17]
  viability, T/C: 92.1%
[18]
  viability, T/C: 28.4%
[19]
  viability, T/C: 72.2%
[20]
  viability, T/C: 70.9%
[21]
  viability, T/C: 74.3%
[22]
  viability, T/C: 71.2%
[23]
  viability, T/C: 80.5%
[24]
  viability, T/C: 21.6%
[25]
  viability, T/C: 5.73%
[26]
  viability, T/C: 6.71%
[27]
  viability, T/C: 6.34%
[28]
  viability, T/C: 6.11%
[29]
  viability, T/C: 7.84%
[30]
  viability, T/C: 4.96%
[31]
  viability, T/C: 3.72%
[32]
  viability, T/C: 2.29%
[33]
  viability, T/C: 1.42%
[34]
  viability, T/C: 3.37%
[35]
  viability, T/C: 1.39%
[36]
  viability, T/C: 1.49%
[37]
  viability, T/C: 2.97%
[38]
  viability, T/C: 0.51%
[39]
  viability, T/C: 2.24%
[40]
  viability, T/C: 0.81%
[41]
  viability, T/C: 0.61%
[42]
  viability, T/C: 0.62%

## Nc1ccn(C2OC(CO)C(O)C2(F)F)c(=O)n1 (stereo not given)
Compound 0.0316 µM
  viability, T/C: 82% and 89.3%
Compound 0.1 µM
  viability, T/C: 62.9% and 70.5%
Compound 0.316 µM
  viability, T/C: 62.4% and 68.2%
Compound 1 µM
  viability, T/C: 55.8% and 65.7%
Compound 3.16 µM
  viability, T/C: 54.8% and 69.3%
Compound 10 µM
  viability, T/C: 47% and 59%
Curve of compound
  IC50: > 10000 nM

## CC(Nc1ccc2c(c1)OCCn1cc(N3C(=O)OCC3C(F)F)nc1-2)C(N)=O (stereo not given) + CN1CCN(c2cc(C(=O)Nc3cc4cc(-c5cnn(C)c5)ccc4cn3)ccn2)CC1
[1]
  IC50: 3170 nM
[2]
  IC50: 1100 nM
[3]
  IC50: 158 nM
[4]
  IC50: < 31.6 nM
[5]
  IC50: < 31.6 nM
[6]
  IC50: < 31.6 nM
[7]
  viability, T/C: 88.1%
[8]
  viability, T/C: 84.9%
[9]
  viability, T/C: 71.8%
[10]
  viability, T/C: 60.5%
[11]
  viability, T/C: 52.2%
[12]
  viability, T/C: 37.2%
[13]
  viability, T/C: 91.5%
[14]
  viability, T/C: 77.3%
[15]
  viability, T/C: 62.1%
[16]
  viability, T/C: 50.6%
[17]
  viability, T/C: 41.6%
[18]
  viability, T/C: 31.2%
[19]
  viability, T/C: 62%
[20]
  viability, T/C: 50.9%
[21]
  viability, T/C: 46%
[22]
  viability, T/C: 35.6%
[23]
  viability, T/C: 35.9%
[24]
  viability, T/C: 21.9%
[25]
  viability, T/C: 2.6%
[26]
  viability, T/C: 2.53%
[27]
  viability, T/C: 2.23%
[28]
  viability, T/C: 1.58%
[29]
  viability, T/C: 1.47%
[30]
  viability, T/C: 1.4%
[31]
  viability, T/C: 3.59%
[32]
  viability, T/C: 0.97%
[33]
  viability, T/C: 1.63%
[34]
  viability, T/C: 1.51%
[35]
  viability, T/C: 1.33%
[36]
  viability, T/C: 1.96%
[37]
  viability, T/C: 1.51%
[38]
  viability, T/C: 0.78%
[39]
  viability, T/C: 1.23%
[40]
  viability, T/C: 0.65%
[41]
  viability, T/C: 0.6%
[42]
  viability, T/C: 0.47%

## Cn1ncnc1[C@H]1c2n[nH]c(=O)c3cc(F)cc(c23)N[C@@H]1c1ccc(F)cc1
Compound 0.000316 µM
  viability, T/C: 98% and 109%
Compound 0.001 µM
  viability, T/C: 90.6% and 97.8%
Compound 0.00316 µM
  viability, T/C: 107% and 108%
Compound 0.01 µM
  viability, T/C: 103% and 105%
Compound 0.0316 µM
  viability, T/C: 99% and 117%
Compound 0.1 µM
  viability, T/C: 85.3% and 95.5%
Curve of compound
  IC50: > 100 nM

## CC(CO)NC(=O)c1cc(-c2ccc(Cl)cc2)nn(-c2cnn(C)c2)c1=O (stereo not given) + CN1CCN(c2cc(C(=O)Nc3cc4cc(-c5cnn(C)c5)ccc4cn3)ccn2)CC1
[1]
  IC50: > 10000 nM
[2]
  IC50: > 10000 nM
[3]
  IC50: 8010 nM
[4]
  IC50: < 31.6 nM
[5]
  IC50: < 31.6 nM
[6]
  IC50: < 31.6 nM
[7]
  viability, T/C: 105%
[8]
  viability, T/C: 96.2%
[9]
  viability, T/C: 95.3%
[10]
  viability, T/C: 107%
[11]
  viability, T/C: 102%
[12]
  viability, T/C: 82.3%
[13]
  viability, T/C: 107%
[14]
  viability, T/C: 104%
[15]
  viability, T/C: 89.8%
[16]
  viability, T/C: 83.9%
[17]
  viability, T/C: 84.9%
[18]
  viability, T/C: 66.9%
[19]
  viability, T/C: 75%
[20]
  viability, T/C: 70.2%
[21]
  viability, T/C: 67.3%
[22]
  viability, T/C: 68.4%
[23]
  viability, T/C: 69.2%
[24]
  viability, T/C: 45.5%
[25]
  viability, T/C: 8.41%
[26]
  viability, T/C: 6.34%
[27]
  viability, T/C: 6.26%
[28]
  viability, T/C: 6.91%
[29]
  viability, T/C: 6.32%
[30]
  viability, T/C: 4.74%
[31]
  viability, T/C: 1.59%
[32]
  viability, T/C: 0.78%
[33]
  viability, T/C: 2.09%
[34]
  viability, T/C: 2.22%
[35]
  viability, T/C: 0.69%
[36]
  viability, T/C: 1.38%
[37]
  viability, T/C: 1.12%
[38]
  viability, T/C: 0.98%
[39]
  viability, T/C: 0.62%
[40]
  viability, T/C: 0.94%
[41]
  viability, T/C: 0.67%
[42]
  viability, T/C: 0.38%
